Data set [1] relates to liver slices. The conditions noted are these: 20 mg loading dose; all trials; in presence of HL 100; FIG. 5.
Data set [2] concerns liver slices.
The mark [3] stands for this setting: 2 mg lidocaine dose, continuous and intermittent (1:3) perfusion, in presence of HL 100, FIG. 3A.

`N` [ammonia]: the “time of maximal ammonia clearance” value in the data set on liver slices [1] is given as “approximately 30 minutes”.

Turning to `CCN(CC)CC(=O)Nc1c(C)cccc1C` [lidocaine], the “lidocaine levels within 30 minutes” value in the data set on liver slices [2] (2 mg dose, 6 hour trials and continuous perfusion 24 hour trial, exposed to HL 100, FIG. 3B) is listed as “approximately 0.8 μg”. Further, in the data set with liver slices [2] (setting [3]), the “level of lidocaine at 120 minutes” value is listed as “approximately 0.5 :g” and the “level of lidocaine at approximately 30 minutes after lidocaine loading” value is given as “approximately 0.9 μg”.

These data come from US7829325B2, “Drug testing with bio-artificial organ slices including for example those derived from liver” (HepaHope, Inc., priority 2003, dated 2010).
